Measurements as given in patent US20040209859A1, “Fused cycloalkyl amides and acids and their therapeutic applications” (priority 2002, published 2004).

**Q.** For `CC1(C)[C@@H]2CC3[C@H](C(=O)O)[C@@]3(C)C[C@@H]21` (stereo partly drawn) (hydrate or solvate) [Example 1, (1S,3S,4S,7R)-3,8,8-trimethyltricyclo[5.1.0.0^3,5]octane-4-carboxylic acid], which melting point is on record?
**A.** The melting point was 86 °C.

**Q.** For `CC1(C)[C@@H]2CC3[C@H](C(N)=O)[C@@]3(C)C[C@@H]21` (stereo partly drawn) [Example 3, (1S,3S,4S,7R)-3,8,8-trimethyltricyclo[5.1.0.0^3,5]octane-4-carboxamide], which melting point is on record?
**A.** The melting point was 121.5 to 122.5 °C.

**Q.** For `CC1(C)[C@@H]2CC3[C@H](C(=O)NCC(N)=O)[C@@]3(C)C[C@@H]21` (stereo partly drawn) [Example 4, (1S,3S,4S,7R)-N-(2-amino-2-oxoethyl)-3,8,8-trimethyltricyclo [5.1.0.0^3,5]octane-4-carboxamide], which melting point is on record?
**A.** Its melting point is 169.2 to 169.7 °C.
